Literature values as cited in patent US10478472B2, “Combination of tolerogenic peptides and TFG-B for use in the induction and maintenance of oral tolerance in young mammals” (NESTEC S.A., priority 2015, dated 2019).

Settings: identified as part of a longer peptide sequence in WO2000/42863
In the case of “IDALNENK (listed as Bos taurus) [SEQ ID No. 6, BLG peptide, position 100-107]”, the “inducers of oral tolerance” value is given as “inducers of oral tolerance”.
For “EVDDEALEK (listed as Bos taurus) [SEQ ID No. 8, BLG peptide, position 143-151]”, the “inducers of oral tolerance” value is listed as “inducers of oral tolerance”.
For “VLDTDY (listed as Bos taurus) [SEQ ID No. 7, BLG peptide, position 110-115]”, the “inducers of oral tolerance” value is given as “inducers of oral tolerance”.
